# Results: patent publication US8211945B2, “Carba-sugar amine derivative and glycolipid metabolic disorder treating agent containing the same as active ingredient” (Seikagaku Corporation, priority 2001, dated 2012)
# Where a chain is given by its changes, count along the chain named.
# Legend:
# Test in all cases: Mutant β-galactosidase activity in model cells, 4 days culture
# Assay type in all cases: cell-based
# [1] = target: T1, human mutant β-galactosidase P263S (Homo sapiens, UniProt P16278, P263S)
# T1 construct: expressed in transfected cells; host or cells: SV40-immortalized skin fibroblasts of a β-galactosidase-deficient knockout mouse
# T1 sequence (P16278 29-677 P263S): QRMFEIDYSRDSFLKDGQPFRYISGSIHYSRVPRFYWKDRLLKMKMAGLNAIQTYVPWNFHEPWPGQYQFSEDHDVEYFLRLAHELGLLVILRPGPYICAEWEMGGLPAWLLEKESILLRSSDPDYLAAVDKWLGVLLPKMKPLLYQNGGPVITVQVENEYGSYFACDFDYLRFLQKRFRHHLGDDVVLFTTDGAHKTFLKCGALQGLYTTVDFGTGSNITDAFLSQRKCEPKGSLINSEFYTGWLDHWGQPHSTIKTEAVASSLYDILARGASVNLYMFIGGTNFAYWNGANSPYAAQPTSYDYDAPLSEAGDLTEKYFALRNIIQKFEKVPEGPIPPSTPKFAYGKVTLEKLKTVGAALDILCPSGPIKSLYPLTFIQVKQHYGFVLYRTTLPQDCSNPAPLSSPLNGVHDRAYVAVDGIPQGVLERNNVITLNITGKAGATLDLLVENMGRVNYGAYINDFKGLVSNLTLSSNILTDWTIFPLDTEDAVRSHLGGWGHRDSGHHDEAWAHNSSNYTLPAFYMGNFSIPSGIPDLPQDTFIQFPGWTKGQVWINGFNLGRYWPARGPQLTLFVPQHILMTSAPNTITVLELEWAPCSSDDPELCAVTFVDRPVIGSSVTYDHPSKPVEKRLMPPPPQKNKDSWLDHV
# Excerpt: (§1) Cultured skin fibroblasts of a β-galactosidase-deficient knockout mouse was immortalized by introducing an SV40 viral gene, and enzyme genes integrated into pSV2neo and an expression vector were also introduced simultaneously, thereby establishing a model cell (Brain Dev., 23(5), 284-287, 2001). The genes used are human normal (GP8) and mutant β-galactosidase gene Y316C, G123R (infantile GM1-gangliosidosis), R201C (juvenile GM1-gangliosidosis), 151T, T82M, R201H, R263S, R457Q (adult GM1-gangliosidosis), W273L, Y83H, R482H and R482C (Morquio-B disease) (Hum. Genet., 93(2), 109-114, 1994).
# (§2) As a control substance, 0.5 mM N-(n-butyl)-deoxygalactonojirimycin (NB-DGJ: The Journal of Biological Chemistry, 269, 27108-27114 (1994)) was used, and the substance 18 of the present invention was used in an amount of 0.2 μM.
# (§3) Specifically, after culturing the model cell for 4 days using a cell culture medium (10% FCS DMEM) containing the substance 18 of the present invention, the resulting cells were recovered and diluted such that the amount of protein in the suspension became a predetermined level, and then enzyme activity in the diluted suspension was measured. Using 4-methylumbelliferyl-β-D-galactopyranoside as the fluorescent substrate, the enzyme activity during 30 minutes was measured at 37° C.
# [2] = target: T2, human mutant β-galactosidase R201H (Homo sapiens, UniProt P16278, R201H)
# T2 construct: expressed in transfected cells; host or cells: SV40-immortalized skin fibroblasts of a β-galactosidase-deficient knockout mouse
# T2 sequence (P16278 29-677 R201H): T1 sequence (P16278 29-677 P263S) with R173H, S235P
# Excerpt: as §1, §2, §3
# [3] = target: T3, human mutant β-galactosidase R482H (Homo sapiens, UniProt P16278, R482H)
# T3 construct: expressed in transfected cells; host or cells: SV40-immortalized skin fibroblasts of a β-galactosidase-deficient knockout mouse
# T3 sequence (P16278 29-677 R482H): T1 sequence (P16278 29-677 P263S) with S235P, R454H
# Excerpt: as §1, §2, §3
Structure (SMILES),"enzyme activity, Control ([1]; transferred gene P263S, control substance 0.5 mM NB-DGJ)","enzyme activity, Control ([2]; transferred gene R201H, control substance 0.5 mM NB-DGJ)","enzyme activity, Control ([3]; transferred gene R482H, control substance 0.5 mM NB-DGJ)","Relative ratio (×100%) ([1]; P263S, substance 18 vs control)","enzyme activity ([1]; transferred gene P263S, 0.2 μM, 4 days)","enzyme activity increased in comparison with the control ([2]; R201H, 0.2 μM) [%]","Relative ratio (×100%) ([2]; R201H, substance 18 vs control)","enzyme activity ([2]; transferred gene R201H, 0.2 μM, 4 days)","Relative ratio (×100%) ([3]; R482H, substance 18 vs control)","enzyme activity ([3]; transferred gene R482H, 0.2 μM, 4 days)"
"CCCCN1C[C@H](O)[C@@H](O)[C@@H](O)[C@H]1CO [Control, N-(n-butyl)-deoxygalactonojirimycin, reference compound]",0.02,19.28,0.50,,,,,,,
"CCCCCCCCN[C@@H]1C=C(CO)[C@H](O)C(O)[C@@H]1O (stereo partly drawn) [Substance 18, N-octyl-5a-carba-α-L-arabino-hexo-5(5a)-enopyranosylamine]",,,,6.58 ×100%,0.12,≥ 150,4.46 ×100%,86.05,2.50 ×100%,1.24
